Data: PMC3779320, “Bub3 reads phosphorylated MELT repeats to promote spindle assembly checkpoint signaling” (eLife, 2013)
Square brackets hold non-standard residues; d marks the D form. Peptide text beside a SMILES is read from it. pT = C[C@@H](OP(=O)(O)O)[C@H](N)C(=O)O

Columns and labels:
[1] = target: T1, Bub1^289–359–Bub3^R239A (Saccharomyces cerevisiae, UniProt P26449+P41695, R239A); experiment: ITC binding to Bub1^289–359–Bub3^R239A; conditions: Bub3 R239A compared with wild type (13- to 25-fold for R217A or R239A)
T1 construct: S. cerevisiae Bub1^289–359 and for full length Bub3; ITC experiments with the MELT2^P peptide and Bub1^289–359–Bub3^R239A; GST (N, cleaved yes); made in house; host or cells: E. coli BL21 DE3 plysS
T1 sequence (P26449 1-341 R239A): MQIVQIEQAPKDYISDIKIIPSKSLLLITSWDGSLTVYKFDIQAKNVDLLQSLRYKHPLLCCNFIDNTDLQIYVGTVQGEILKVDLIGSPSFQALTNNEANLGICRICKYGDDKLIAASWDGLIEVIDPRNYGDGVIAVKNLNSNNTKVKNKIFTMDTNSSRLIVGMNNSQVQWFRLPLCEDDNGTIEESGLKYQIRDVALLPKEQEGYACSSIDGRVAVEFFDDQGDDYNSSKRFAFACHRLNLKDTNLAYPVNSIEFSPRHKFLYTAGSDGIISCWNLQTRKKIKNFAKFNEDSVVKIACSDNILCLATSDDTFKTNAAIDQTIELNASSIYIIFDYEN
T1 sequence (P41695 289-359): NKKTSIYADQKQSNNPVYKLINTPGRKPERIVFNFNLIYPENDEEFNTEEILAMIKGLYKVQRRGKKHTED
Excerpt: Because the presence of a phosphate on Thr172^Spc105/Knl1 is essential for high-affinity binding of ScBub1^289–359–Bub3 to MELT^P peptides (Figure 1), we concentrated our mutational analysis on two residues that are directly implicated in the recognition of the peptide’s phospho-threonine, Arg217^Bub3 and Arg239^Bub3. Positively charged residues are invariant at these positions of the Bub3 alignment (Figure 2C). We generated single or double alanine mutants of Arg217^Bub3 and Arg239^Bub3 in the context of ScBub1^289–359–Bub3 and tested their binding affinity for the MELT2^P peptide by ITC.
cDNA sequences coding for S. cerevisiae Bub1^289–359 and for full length Bub3 were subcloned in the first and second cassettes of pGEX-6P-2rbs vector ([Ciferri et al., 2005]). In this construct, the cDNA encoding Bub1^289–359 was sub-cloned in frame with the gene encoding GST and a cleavage site for PreScission protease, and was translated from the first ribosome-binding site (rbs). Untagged Bub3 was subcloned downstream of the second rbs in the same vector. Expression was carried out in BL21 DE3 plysS cells in LB medium by auto-induction with 0.3% lactose at 18°C for approximately 16 hr. […]
Binding isotherm was measured at 25°C by isothermal titration calorimetry on a MicroCal ITC200 device (GE Healthcare, Piscataway, NJ). […]

[2] = target: T2, Bub1^289–359–R314A–Bub3 (Saccharomyces cerevisiae, UniProt P26449+P41695, R314A); format: binding; conditions: ITC; Bub3-Bub1^R314A mutant compared to wild type Bub3–Bub1; MELT4^P: data not shown
T2 construct: S. cerevisiae Bub1^289–359 and for full length Bub3; ITC experiment with the MELT2^P peptide and the Bub1^289–359–R314A–Bub3 complex; GST (N, cleaved yes); made in house; host or cells: E. coli BL21 DE3 plysS
T2 sequence (P26449 whole entry): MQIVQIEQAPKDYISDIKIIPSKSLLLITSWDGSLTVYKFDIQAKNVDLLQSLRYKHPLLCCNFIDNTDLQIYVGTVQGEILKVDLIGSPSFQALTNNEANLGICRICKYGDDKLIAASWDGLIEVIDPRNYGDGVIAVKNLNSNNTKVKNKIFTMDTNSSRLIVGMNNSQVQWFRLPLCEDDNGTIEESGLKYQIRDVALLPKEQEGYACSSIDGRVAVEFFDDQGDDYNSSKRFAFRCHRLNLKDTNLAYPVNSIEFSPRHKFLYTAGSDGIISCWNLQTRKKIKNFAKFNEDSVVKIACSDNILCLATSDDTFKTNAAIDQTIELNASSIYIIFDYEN
T2 sequence (P41695 289-359 R314A): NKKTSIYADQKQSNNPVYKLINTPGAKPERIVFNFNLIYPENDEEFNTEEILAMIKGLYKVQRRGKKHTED
Excerpt: Such function of Bub1 is probably exerted primarily through its structuring effects on the 4-stranded β-sheet ‘roof’ that dominates the peptide-binding region of Bub3 and which restrains the position of the positively charged residues in the ‘north’ area of the MELT^P-binding site (Figure 4E). Additionally, we observe that Arg314^Bub1, in the β1-β2 loop, contributes to the interaction with the phosphate group of P-Thr172^Spc105/Knl1 (the interaction, however, is only observed in one of the two complexes in the asymmetric unit, and in proximity of a crystal contact) and is therefore directly engaged in the interaction with the MELT2^P peptide. In ITC measurements, we observed a ∼fourfold reduction in the binding affinity of the Bub3-Bub1^R314A mutant for the MELT2^P peptide, in agreement with a role of Arg314^Bub1 is in the interaction of the Bub1-Bub3 complex with MELT2^P (Figure 4F). Similarly, Bub3–Bub1^R314A bound the MELT4^P with ∼threefold decreased affinity compared to wild type Bub3–Bub1 (data not shown).
Binding isotherm was measured at 25°C by isothermal titration calorimetry on a MicroCal ITC200 device (GE Healthcare, Piscataway, NJ). All samples were extensively dialysed into fresh GF buffer (20 mM Tris pH7.5, 150 mM NaCl, 1 mM DTE). […]

## CC[C@H](C)[C@H](NC(=O)[C@H](CO)NC(=O)[C@H](CCCNC(=N)N)NC(=O)[C@@H]1CCCN1C(=O)[C@H](Cc1ccccc1)NC(=O)[C@@H](NC(=O)[C@H](CCC(=O)O)NC(=O)[C@@H](NC(=O)[C@H](CCSC)NC(=O)[C@H](CCC(=O)O)NC(=O)[C@H](CCSC)NC(=O)[C@H](CO)NC(=O)[C@@H](NC(=O)[C@@H]1CCCN1C(=O)[C@H](CC(=O)O)NC(C)=O)[C@@H](C)O)[C@@H](C)OP(=O)(O)O)C(C)C)C(=O)N[C@@H](CCCNC(=N)N)C(=O)N[C@@H](CCC(N)=O)C(=O)N[C@@H](CCCCN)C(=O)N[C@@H](CC(N)=O)C(N)=O [MELT2^P] (Ac-DPTSMEM[pT]EVFPRSIRQKN-NH2; N-terminus and C-terminus assumed)
[1]
  fold reduction in binding affinity: 25 fold
[2]
  fold reduction in binding affinity: fourfold
